From article PMC12396291, “DNA-encoded library screening uncovers potent DNMT2 inhibitors targeting a cryptic allosteric binding site” (iScience, 2025)
Several values for one entry are separate records, joined by “and”; a condition that tells them apart may be missing. Equal values may be shown once. Entries after “also recorded” stand apart in the source; their conditions may differ.

Assays:
[1] = molecular target: T1, DNMT2 (Homo sapiens, UniProt O14717); experiment: MST displacement assay with fluorescent FTAD probe; format: binding; design: Fnorm (MST screening): unit not given here
T1 construct: Recombinant human DNMT2 (full-length); His-tag; made in house; host or cells: E. coli
T1 sequence (O14717 1-391): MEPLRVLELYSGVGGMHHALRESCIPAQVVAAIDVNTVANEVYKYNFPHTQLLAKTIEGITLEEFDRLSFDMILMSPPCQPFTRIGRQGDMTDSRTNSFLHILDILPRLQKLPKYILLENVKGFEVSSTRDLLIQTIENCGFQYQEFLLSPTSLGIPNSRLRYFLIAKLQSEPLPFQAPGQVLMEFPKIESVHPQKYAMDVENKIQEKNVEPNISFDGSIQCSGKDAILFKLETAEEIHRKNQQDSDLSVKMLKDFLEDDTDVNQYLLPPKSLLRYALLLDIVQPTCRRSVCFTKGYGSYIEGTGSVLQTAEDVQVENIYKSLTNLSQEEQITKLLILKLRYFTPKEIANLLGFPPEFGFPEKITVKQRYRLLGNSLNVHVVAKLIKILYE
Method: (§1) Screening for ligand binding and evaluation of dose-response affinity profiles was performed via microscale thermophoresis (MST) as described previously.[42] The measurements were conducted with a Nanotemper Technologies Monolith NT.115 device. All samples were measured in Monolith standard capillaries at 25 °C. The acquisition mode was set to “Nano-Blue” with an excitation power of 30% and a medium MST power, while the system was controlled using the software MO.Control (version 1.6.1) and for evaluation MO.Affinity Analysis (version 2.3) was used. The samples contained 2 μM DNMT2, 100 nM FTAD (5-FAM-triazolyl-adenosyl-Dab) probe, and 1.3% DMSO in MST buffer (50 mM HEPES, 150 mM NaCl, 1 mM dithiothreitol (DTT), 0.1% PEG-8000, 0.05% polysorbate-20, pH 7.4).[42] All compounds were employed at a final concentration of 100 μM for the initial ligand screening.

[2] = Parallel artificial membrane permeation assay (PAMPA); format: in vitro ADME; conditions: 7 h incubation, duplicates
Method: To determine the passive permeability of selected DNMT2 ligands, a parallel artificial membrane permeation assay (PAMPA) was performed as described previously.[68] The experiment was performed in duplicates with Sigma-Aldrich MAIPNTR10 donor plates with 5 μL of an artificial membrane (1% w/v L-α-phosphatidylcholine in n-dodecane) per well. After incubation for 7 h, the acceptor solutions were evaluated by LC/MS (HP Agilent 1100 Series). The peak areas in the UV chromatogram (λ = 210 nm) were used to calculate the areas under the curve (AUCs).

[3] = molecular target: T2, DNMT2 in MOLM-13 cells (Homo sapiens, UniProt O14717); experiment: Cellular thermal shift assay (CETSA); format: cell-based; conditions: MOLM-13, 50 μM, 16 h
T2 construct: engages DNMT2 in the MOLM-13 cellular environment, we performed cellular thermal shift assays (CETSA); endogenous in cells; host or cells: MOLM-13
T2 sequence (O14717 1-391): T1 sequence (O14717 1-391)
Method: After incubation for 16 h (37 °C, 5% CO2), the cell suspensions were collected. The cells were washed twice and then counted, followed by the addition of 1 mL PBS. The cell suspension was divided into eight parts, and then heated for 4 min at various temperatures (40, 43, 46, 49, 52, 55, 58 °C) in a PCR thermocycler. The cells were lysed through a freeze-thaw process using liquid nitrogen. The supernatant solutions were used for immunoblotting analysis. […] Proteins were separated by SDS−PAGE on 4–20% Criterion TGX Precast Protein Gels (Bio-Rad) and transferred to Amersham Protean 0.45 μm nitrocellulose membrane (Cytiva) using semi-dry transfer (25 V, 1 A, Towbin buffer). […] Subsequently, the membrane was incubated for 3 h at RT with IRDye 680RD Goat anti-Rabbit (1:1000, LICOR, 926–68071). Protein bands were visualized using a GE Healthcare Typhoon Trio biomolecular scanner, with laser excitation at 637 nm and fluorescence detection at 670 nm. The ImageLab software (Bio-Rad) was used for band quantification.

[4] = molecular target: T1, DNMT2; experiment: ^3H-based methyltransferase enzyme activity assay (^3H-SAM incorporation into tRNA^Asp); format: biochemical
Method: Enzymatic DNMT2 inhibition assays were carried out in 100 mM Tris-HCl, pH 8.0, 100 mM NH4OAc, 0.1 mM EDTA, 10 mM MgCl2, and 10 mM DTT as described previously.[3]^,[4] First, the tRNA^Asp substrate was heated to 75 °C for 5 min and cooled down to room temperature (RT) before it was added to the reaction mixture to a final concentration of 5 μM. The reaction mixture contained 250 nM DNMT2 and the ligand compounds at variable concentrations (5% DMSO). Enzymatic reactions were started by the addition of 0.9 μM SAM as a mixture of ^3H-SAM (Hartmann Analytics) resp. cold SAM (NEB) to a final activity of 0.025 μCi μL^−1. Enzyme assays were carried out for 30 min at 37 °C. As a negative control served the reaction mixture without DNMT2 and as a positive control the reaction mixture without test compound. After 30 min, aliquots of 8 μL were taken from the reaction mixture and spotted on Whatman glass microfiber filters (GF/C, 25 mm). The RNA was precipitated on the filters with 5% ice-cold TCA for 15 min. […] Scintillation was measured with a scintillation counter (TriCarb Liquid Scintillation Analyzer 4810 TR; measurement time of 1 min). For IC50-value determination, compounds were analyzed at a minimum of six different concentrations in triplicates. IC50-values were calculated, evaluated, and plotted in GraphPad Prism 8.0.1.

[5] = molecular target: T3, DNMT2Δ47 (Homo sapiens, UniProt O14717, DEL191-237); experiment: MST FTAD assay with deletion mutant; format: binding; conditions: DNMT2Δ47 2 μM, FTAD probe; read-out: affinity (MST KD) against DNMT2Δ47
T3 construct: His-tag; made in house; host or cells: E. coli (host printed only for the crystallization preparation)
T3 sequence (O14717 with tags, fused parts or gaps DEL191-237): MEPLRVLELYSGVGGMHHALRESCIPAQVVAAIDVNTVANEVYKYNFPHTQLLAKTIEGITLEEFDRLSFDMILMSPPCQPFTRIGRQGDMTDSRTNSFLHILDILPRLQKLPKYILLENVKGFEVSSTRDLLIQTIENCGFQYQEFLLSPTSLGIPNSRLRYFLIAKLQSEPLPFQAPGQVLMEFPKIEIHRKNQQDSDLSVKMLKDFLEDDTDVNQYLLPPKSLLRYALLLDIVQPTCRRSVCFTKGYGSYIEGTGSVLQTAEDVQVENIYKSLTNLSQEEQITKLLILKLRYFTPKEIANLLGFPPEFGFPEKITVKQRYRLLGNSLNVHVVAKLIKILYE
Method: as §1

[6] = molecular target: T1, DNMT2; experiment: Isothermal titration calorimetry (ITC), direct titration; format: binding; conditions: direct titration at 25 °C; n.b. = no enthalpy signal observable
Method: The DNMT2 protein was purified via size exclusion chromatography eluting in isothermal titration calorimetry (ITC) buffer (50 mM sodium phosphate pH 8.0, 300 mM NaCl, 1 mM EDTA, 2 mM β-mercaptoethanol, 0.1% polysorbate-20) and directly used for measurements.[3] All compounds were dissolved in DMSO to a concentration of 5 mM and were then diluted in ITC buffer to a final concentration of 500 μM. DNMT2 was diluted to a final concentration of 50 μM with 10% DMSO to match the ligand stocks' DMSO concentration. For the ITC measurements, a MicroCal PEAQ-ITC Automated workstation (Malvern Panalytical) with a 200 μL Hastelloy cell and an injection syringe volume of 40 μL was used. All experiments were performed in triplicates at 25 °C unless otherwise noted. For each measurement, 19 compound injections (2 μL each) with an injection speed of 0.5 μL/s were added to the reaction cell containing DNMT2. The spacing time between sequential injections was 300 s, and the stirring speed was set to 750 rpm with a reference power of 42 μW. As control experiments, ligands were titrated into ITC buffer. Data analysis and fitting were carried out using the MicroCal PEAQ-ITC Analysis Software 1.21 and plotted in GraphPad Prism 8.0.1.

[7] = molecular target: T1, DNMT2; experiment: Affinity selection-mass spectrometry (AS-MS); format: binding; conditions: 5 μM DNMT2, label-free
Method: Orthogonal KD-value determination for compound 3 was conducted by an affinity selection-mass spectrometry (AS-MS) assay according to Prudent et al.[43] and Simon et al.[67] Compound 3 was dissolved in DMSO (20 mM) and a dilution series in Tris buffer (25 mM Tris, 100 mM NaCl, pH 7.5) was prepared to give final ligand concentrations of 100 μM, 50 μM, 25 μM, 12.5 μM, 6.25 μM, 3.12 μM, 1.56 μM, and 0 μM. DNMT2 was diluted in Tris buffer (130 μM) and added to the dilution series to give a final concentration of 5 μM DNMT2. Zeba Spin Desalting columns 7K MWCO were used for the affinity-based separation. These columns were centrifuged at 2000g for 1 min to remove the storage buffer. 20 μL of the prepared samples were loaded to the columns, and the protein-ligand complex was eluted by centrifugation at 2000g for 2 min. The centrifuged solutions were diluted with 10 μL ACN and analyzed by LC/MS with an Agilent 1100 Series HPLC system. The data evaluation and subsequent binding affinity determination were performed with MestReNova (version 14.0.1) and GraphPad Prism 8.0.1.

[8] = molecular target: T1, DNMT2; experiment: Fluorescence polarization (FP) assay with probe 6; format: binding; conditions: probe 6 with DNMT2 (enzyme-free buffer 5 mP)
Method: (§2) Fluorescence polarization (FP) measurements with RNA MTases and small-molecule fluorescent tracers were conducted in black Greiner 96-well half-area plates using a Tecan Spark 10M plate reader as described previously.[44] The reader was equipped with polarization filters coupled to a monochromator setup (λex = 480 nm, λem = 530 nm). For selectivity screening, reaction mixtures contained varying concentrations of recombinant enzyme (DNMT1, DNMT2, DNMT3A/3L, NSUN2, NSUN3, or NSUN6; preparation see below) and 10 nM DEL hit-derived probe 6 in MST buffer. For displacement experiments, 100 μM SAH or 10 μM tRNA^Asp were added from buffered stock solutions to the DNMT2-containing mixtures. All measurements were performed as triplicates. Polarization values (in mP) were calculated from polarization-specific parallel and orthogonal fluorescence intensities according to the Tecan in-built calculation routine. KD-values were calculated and plotted in GraphPad Prism 8.0.1.

[9] = molecular target: T1, DNMT2; experiment: MST with DEL hit-derived fluorescent tracers 6-8, DNMT2 varied; conditions: probe 100 nM instead of FTAD, read-out: probe binding affinity (MST, apparent KD)
[10] = molecular target: T4, DNMT3A/3L (UniProt Q9CWR8+Q9Y6K1); experiment: FP selectivity assay with probe 6; format: binding, human; conditions: enzyme concentrations up to 20 μM
T4 construct: made in house; host or cells: E. coli
Method: as §2

[11] = molecular target: T5, NSUN2 (Homo sapiens, UniProt Q08J23); experiment: FP selectivity assay with probe 6; format: binding; conditions: enzyme concentrations up to 20 μM
T5 construct: made in house; host or cells: E. coli
Method: as §2

[12] = molecular target: T6, NSUN6 (Homo sapiens, UniProt Q8TEA1); experiment: FP selectivity assay with probe 6; format: binding; conditions: enzyme concentrations up to 20 μM
T6 construct: made in house; host or cells: E. coli
T6 sequence (Q8TEA1 1-469): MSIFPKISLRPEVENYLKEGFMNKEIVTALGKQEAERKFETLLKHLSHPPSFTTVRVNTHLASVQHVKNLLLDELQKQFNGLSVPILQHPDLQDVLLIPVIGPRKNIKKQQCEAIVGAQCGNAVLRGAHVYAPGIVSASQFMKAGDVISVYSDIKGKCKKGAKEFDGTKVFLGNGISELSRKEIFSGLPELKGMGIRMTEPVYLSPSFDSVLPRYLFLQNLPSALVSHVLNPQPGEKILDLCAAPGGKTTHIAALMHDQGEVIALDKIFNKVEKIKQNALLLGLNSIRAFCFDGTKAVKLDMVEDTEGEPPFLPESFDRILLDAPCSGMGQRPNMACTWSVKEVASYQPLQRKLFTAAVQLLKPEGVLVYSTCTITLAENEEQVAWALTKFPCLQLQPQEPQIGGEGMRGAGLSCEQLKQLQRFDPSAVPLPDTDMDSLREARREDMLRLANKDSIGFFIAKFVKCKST
Method: as §2

[13] = molecular target: T7, NSUN3 (Homo sapiens, UniProt Q9H649); experiment: FP selectivity assay with probe 6; format: binding; conditions: enzyme concentrations up to 20 μM
T7 construct: made in house
T7 sequence (Q9H649 1-340): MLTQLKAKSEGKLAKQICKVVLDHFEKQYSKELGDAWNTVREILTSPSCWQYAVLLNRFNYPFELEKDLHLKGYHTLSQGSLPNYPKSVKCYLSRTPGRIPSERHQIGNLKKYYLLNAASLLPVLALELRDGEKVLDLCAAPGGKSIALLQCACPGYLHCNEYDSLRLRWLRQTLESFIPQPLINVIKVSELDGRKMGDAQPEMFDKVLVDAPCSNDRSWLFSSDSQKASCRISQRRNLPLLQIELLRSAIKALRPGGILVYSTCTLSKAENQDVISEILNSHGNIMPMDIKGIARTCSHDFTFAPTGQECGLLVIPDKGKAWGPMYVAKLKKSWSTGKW
Method: as §2

[14] = molecular target: T8, DNMT1 (Homo sapiens, UniProt P26358); experiment: FP selectivity assay with probe 6; format: binding; conditions: enzyme concentrations up to 20 μM
T8 construct: purchased ActiveMotif 31404
Method: as §2

[15] = ATP-quantifying cell viability assay, 48 h; format: cell-based; conditions: human, MOLM-13, HCT, Huh-7, MDA-MB-231 and HEK293 cells, all cell lines
[16] = tested on: MOLM-13 cells; experiment: Cell viability assay, doxorubicin co-treatment; format: cell-based; conditions: Homo sapiens; MOLM-13, doxorubicin 48 h; read-out: CC50 (only doxorubicin)
Method: Cell viability assays were conducted with MOLM-13 cells, Huh-7, MDA-MB-231, HEK293, and HCT MTase mutant cell lines (WT, knock-down DNMT2, and knock-down NSUN2) to investigate the DNMT2 inhibiting compounds’ cellular effect. Cells were cultured according to standard protocols: MOLM-13 (RPMI, 10% FBS, 1x Penicillin/Streptomycin, 37 °C, 5% CO2), Huh-7/MDA-MB-231/HEK293 (DMEM, 10% FBS, 1x Penicillin/Streptomycin, 37 °C, 5% CO2) and HCT (McCoys’s 5A Medium, 10% FBS, L-Glutamine, 1x Penicillin/Streptomycin, 37 °C, 5% CO2). Cell viability was assessed using Promega Cell Titer Glo assay kit (MOLM-13, Huh-7, MDA-MB-231, HEK293) or Lonza ViaLight Plus Cell Proliferation and Cytotoxicity BioAssay Kit (HCT cell lines). Briefly, 1000 cells were seeded in white Greiner half-area 96-well plates and incubated for 48 h with inhibitors/ligands from DMSO stocks (final: 0.1% DMSO) under standard cultivation conditions. Then, the cell titer reagent was added to each well according to the manufacturer’s protocols, and luminescence was measured using a Tecan Spark 10M plate reader (MOLM-13, Huh-7, MDA-MB-231, HEK293) or Molecular Devices FlexStation (HCT cell lines).

T5 sequence (Q08J23 whole entry): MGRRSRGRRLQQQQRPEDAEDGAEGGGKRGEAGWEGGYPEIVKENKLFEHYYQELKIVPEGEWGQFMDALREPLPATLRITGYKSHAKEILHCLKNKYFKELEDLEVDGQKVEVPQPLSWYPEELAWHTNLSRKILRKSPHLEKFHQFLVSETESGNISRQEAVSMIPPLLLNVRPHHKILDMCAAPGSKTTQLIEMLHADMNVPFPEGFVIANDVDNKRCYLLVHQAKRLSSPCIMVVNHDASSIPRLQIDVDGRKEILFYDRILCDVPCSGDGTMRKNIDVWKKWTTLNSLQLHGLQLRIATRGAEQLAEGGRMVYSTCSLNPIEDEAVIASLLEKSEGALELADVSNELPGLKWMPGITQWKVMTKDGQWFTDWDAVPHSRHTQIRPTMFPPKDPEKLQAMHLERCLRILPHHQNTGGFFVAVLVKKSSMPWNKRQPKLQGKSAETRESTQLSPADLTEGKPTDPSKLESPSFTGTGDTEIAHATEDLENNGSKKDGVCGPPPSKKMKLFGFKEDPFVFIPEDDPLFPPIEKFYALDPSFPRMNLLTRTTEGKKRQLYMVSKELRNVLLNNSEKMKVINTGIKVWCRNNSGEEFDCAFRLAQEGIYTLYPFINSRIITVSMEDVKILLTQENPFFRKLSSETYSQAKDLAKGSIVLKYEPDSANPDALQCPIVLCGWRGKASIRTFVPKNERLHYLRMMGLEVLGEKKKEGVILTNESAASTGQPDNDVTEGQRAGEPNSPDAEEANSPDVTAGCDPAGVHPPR
T8 sequence (P26358 whole entry): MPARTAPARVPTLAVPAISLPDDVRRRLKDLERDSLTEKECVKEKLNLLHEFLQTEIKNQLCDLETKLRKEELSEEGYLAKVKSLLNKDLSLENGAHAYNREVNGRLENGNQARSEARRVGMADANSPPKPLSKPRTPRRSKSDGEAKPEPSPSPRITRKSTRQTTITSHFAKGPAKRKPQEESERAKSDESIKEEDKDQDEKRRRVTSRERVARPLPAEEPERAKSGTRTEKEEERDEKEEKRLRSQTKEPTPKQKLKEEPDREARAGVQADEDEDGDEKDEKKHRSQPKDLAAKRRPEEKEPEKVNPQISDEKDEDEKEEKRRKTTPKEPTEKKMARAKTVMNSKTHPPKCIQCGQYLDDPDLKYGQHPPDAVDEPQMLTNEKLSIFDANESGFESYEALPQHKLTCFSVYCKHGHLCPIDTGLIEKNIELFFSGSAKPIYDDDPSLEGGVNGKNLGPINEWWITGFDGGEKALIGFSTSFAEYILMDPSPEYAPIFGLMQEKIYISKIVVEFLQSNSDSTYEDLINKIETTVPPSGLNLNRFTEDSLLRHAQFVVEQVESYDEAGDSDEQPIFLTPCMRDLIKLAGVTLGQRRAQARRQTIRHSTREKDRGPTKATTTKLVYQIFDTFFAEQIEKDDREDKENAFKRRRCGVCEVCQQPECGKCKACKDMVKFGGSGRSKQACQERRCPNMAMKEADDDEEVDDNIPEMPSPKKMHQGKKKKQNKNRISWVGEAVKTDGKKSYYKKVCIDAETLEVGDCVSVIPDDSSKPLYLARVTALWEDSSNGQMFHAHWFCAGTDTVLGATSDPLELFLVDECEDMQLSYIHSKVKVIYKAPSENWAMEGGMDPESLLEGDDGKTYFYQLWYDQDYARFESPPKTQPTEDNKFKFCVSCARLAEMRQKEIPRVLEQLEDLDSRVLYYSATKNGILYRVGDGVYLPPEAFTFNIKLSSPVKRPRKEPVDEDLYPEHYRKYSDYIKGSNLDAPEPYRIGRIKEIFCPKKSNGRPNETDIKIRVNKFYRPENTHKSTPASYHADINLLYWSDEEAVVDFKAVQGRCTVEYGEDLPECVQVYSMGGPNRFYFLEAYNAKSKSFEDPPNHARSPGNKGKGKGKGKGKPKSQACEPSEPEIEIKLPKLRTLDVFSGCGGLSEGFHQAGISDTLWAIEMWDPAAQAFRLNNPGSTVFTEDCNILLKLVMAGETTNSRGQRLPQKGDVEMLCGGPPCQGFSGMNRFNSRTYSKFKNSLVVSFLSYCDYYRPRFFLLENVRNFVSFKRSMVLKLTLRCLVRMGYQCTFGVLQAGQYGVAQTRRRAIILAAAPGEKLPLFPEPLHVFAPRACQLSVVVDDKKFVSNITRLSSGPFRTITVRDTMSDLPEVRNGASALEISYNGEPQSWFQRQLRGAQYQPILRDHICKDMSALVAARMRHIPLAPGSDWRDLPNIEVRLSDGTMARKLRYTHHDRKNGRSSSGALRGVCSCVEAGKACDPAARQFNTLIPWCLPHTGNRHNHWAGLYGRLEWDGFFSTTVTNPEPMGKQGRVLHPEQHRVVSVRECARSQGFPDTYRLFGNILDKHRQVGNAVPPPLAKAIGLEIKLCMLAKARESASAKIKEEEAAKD

Structure (SMILES): CCc1ccc(C(=O)NCC2(C(=O)NC(CC(=O)NCC(=O)NC)Cc3c[nH]c4ccccc34)CC2)cc1 (stereo not shown) [Compound 3]
- FTAD displacement in the MST assay ([1]; DEL hits, result in words): quantitative FTAD displacement
- Kd ([1]; FTAD probe 100 nM, 2 μM DNMT2, n.b. = no thermophoresis shift observable): 48 µM and 48.2 µM
- Fnorm (% displ.): FTAD displacement ([1]; ligand 100 μM, FTAD probe): 53%
- Fnorm (MST screening) ([1]; ligand 100 μM, FTAD probe): 912.1
- Papp (PAMPA) [2]: failed to pass through the artificial membrane; also recorded: below detection limit
- thermal stabilization of DNMT2 (CETSA) [3]: no thermal stabilization occurred
- IC50 [4]: 38.9 ± 6.9 µM
- Kd [5]: 102 µM
- Kd [6]: 5.3 µM and 5.31 µM
- Kd [7]: 8.4 ± 2.2 µM

Structure (SMILES): CCc1ccc(C(=O)NCC2(C(=O)N[C@H](CC(=O)NCC(=O)NCCCCCCNC(=O)c3ccc(-c4c5ccc(=N)c(S(=O)(=O)O)c-5oc5c(S(=O)(=O)O)c(N)ccc45)c(C(=O)O)c3)Cc3ccccc3)CC2)cc1 [Compound 6]
- fluorescence polarization of probe-DNMT2 complex [8]: 220 mP
- Kd [9]: 1.65 µM
- probe binding to DNMT3A/3L (FP) [10]: does not bind
- probe binding to NSUN2 (FP) [11]: does not bind
- probe binding to NSUN6 (FP) [12]: does not bind
- probe binding to NSUN3 (FP) [13]: does not bind
- probe binding to DNMT1 (FP) [14]: does not bind

Structure (SMILES): Nc1ncn([C@@H]2O[C@H](CO)[C@@H](O)[C@H]2O)c(=O)n1 [azacitidine]
- CC50 at 48 h [15]: < 10 µM

Structure (SMILES): COc1cccc2c1C(=O)c1c(O)c3c(c(O)c1C2=O)C[C@@](O)(C(=O)CO)C[C@@H]3O[C@H]1C[C@H](N)[C@H](O)[C@H](C)O1 [doxorubicin]
- CC50 [16]: 0.045 ± 0.003 µM
